Results as given in ChEMBL document CHEMBL1201862, “PubChem BioAssay data set” (2004).
Active and inactive are the calls of the source.

How the values were obtained:
Aminopeptidase N = molecular target: T1, Aminopeptidase N (Plasmodium falciparum FcB1/Columbia, UniProt O96935); assay: P. falciparum M1AAP inhibitors, biochemical, fluorogenic H-Leu-NHMec substrate, 1536-well (AID 1445); parameters: species or system Plasmodium falciparum 3D7, 3D7
T1 sequence (O96935 whole entry): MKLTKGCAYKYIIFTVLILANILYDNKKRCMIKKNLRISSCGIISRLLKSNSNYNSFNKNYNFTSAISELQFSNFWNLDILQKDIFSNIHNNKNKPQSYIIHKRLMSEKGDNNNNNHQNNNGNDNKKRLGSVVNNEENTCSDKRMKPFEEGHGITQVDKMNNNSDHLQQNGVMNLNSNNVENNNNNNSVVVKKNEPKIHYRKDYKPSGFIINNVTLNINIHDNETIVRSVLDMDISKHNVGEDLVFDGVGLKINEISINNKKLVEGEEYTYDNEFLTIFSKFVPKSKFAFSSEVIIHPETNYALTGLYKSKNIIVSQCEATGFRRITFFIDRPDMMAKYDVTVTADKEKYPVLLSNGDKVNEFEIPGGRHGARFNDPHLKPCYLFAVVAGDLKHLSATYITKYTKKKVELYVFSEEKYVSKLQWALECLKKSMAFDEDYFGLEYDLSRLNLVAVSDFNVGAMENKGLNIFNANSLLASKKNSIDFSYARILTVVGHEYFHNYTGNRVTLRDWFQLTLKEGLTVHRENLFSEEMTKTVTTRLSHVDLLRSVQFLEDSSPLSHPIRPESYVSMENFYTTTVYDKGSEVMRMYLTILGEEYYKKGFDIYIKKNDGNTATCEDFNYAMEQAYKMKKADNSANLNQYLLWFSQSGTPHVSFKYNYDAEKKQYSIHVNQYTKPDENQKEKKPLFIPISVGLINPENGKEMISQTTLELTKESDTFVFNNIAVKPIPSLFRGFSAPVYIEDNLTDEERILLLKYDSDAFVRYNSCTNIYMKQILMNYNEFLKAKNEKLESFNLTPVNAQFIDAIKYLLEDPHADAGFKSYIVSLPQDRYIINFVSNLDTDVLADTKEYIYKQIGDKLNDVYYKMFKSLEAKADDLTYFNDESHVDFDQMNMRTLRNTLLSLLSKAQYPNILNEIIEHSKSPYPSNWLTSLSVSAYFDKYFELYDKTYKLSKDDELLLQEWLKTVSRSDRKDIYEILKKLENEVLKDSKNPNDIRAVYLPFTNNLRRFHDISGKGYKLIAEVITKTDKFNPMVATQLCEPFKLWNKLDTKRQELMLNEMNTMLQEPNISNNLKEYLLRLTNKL

[1] = molecular target: Endoplasmic reticulum aminopeptidase 1 (Homo sapiens, UniProt Q9NZ08); assay: ERAP1 aminopeptidase inhibitors, dose response, biochemical, cherry-pick, set 2, plate reader (AID 743314)
[2] = human group III sPLA2 inhibitors, dose response, biochemical, QFRET, IC50 (AID 743457);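 note: green fluorescence rise as the enzyme cleaves BODIPY PC-A2 in liposomes; potency for inhibition of the enzyme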
Leucine aminopeptidase = molecular target: T2, Leucine aminopeptidase (Plasmodium falciparum 3D7, UniProt Q8IL11); assay: P. falciparum M17LAP inhibitors, primary screen, biochemical, fluorogenic H-Leu-NHMec substrate, 1536-well (AID 1619); format: functional
T2 sequence (Q8IL11 whole entry): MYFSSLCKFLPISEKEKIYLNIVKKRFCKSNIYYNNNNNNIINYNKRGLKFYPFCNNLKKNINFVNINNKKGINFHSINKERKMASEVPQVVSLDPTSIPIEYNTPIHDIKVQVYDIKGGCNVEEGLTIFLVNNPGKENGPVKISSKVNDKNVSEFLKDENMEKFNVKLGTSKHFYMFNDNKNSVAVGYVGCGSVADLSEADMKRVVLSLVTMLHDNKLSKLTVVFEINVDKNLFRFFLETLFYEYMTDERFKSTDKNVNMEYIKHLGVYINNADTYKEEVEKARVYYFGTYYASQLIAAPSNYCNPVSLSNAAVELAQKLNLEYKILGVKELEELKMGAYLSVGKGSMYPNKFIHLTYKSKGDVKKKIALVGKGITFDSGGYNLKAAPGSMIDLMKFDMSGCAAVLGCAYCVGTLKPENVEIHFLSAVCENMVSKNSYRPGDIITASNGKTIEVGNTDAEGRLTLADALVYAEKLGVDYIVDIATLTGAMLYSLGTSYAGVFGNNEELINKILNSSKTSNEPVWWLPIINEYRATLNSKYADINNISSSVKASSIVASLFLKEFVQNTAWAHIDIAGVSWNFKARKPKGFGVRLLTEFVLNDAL

[3] = molecular target: T3, Heat shock factor protein 1 (Mus musculus, UniProt P38532); assay: inhibition of MG132-induced HSE-luciferase signal, confirmation, cell-based, NIH3T3, luminescence, dose retest (AID 2382); format: functional;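 note: NIH3T3 fibroblasts with HSF1-driven luciferase reporter stressed by proteasome inhibitor MG132; luminescence from HSF1-driven luciferase expression after 8 hours of MG132 stress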
T3 sequence (P38532 whole entry): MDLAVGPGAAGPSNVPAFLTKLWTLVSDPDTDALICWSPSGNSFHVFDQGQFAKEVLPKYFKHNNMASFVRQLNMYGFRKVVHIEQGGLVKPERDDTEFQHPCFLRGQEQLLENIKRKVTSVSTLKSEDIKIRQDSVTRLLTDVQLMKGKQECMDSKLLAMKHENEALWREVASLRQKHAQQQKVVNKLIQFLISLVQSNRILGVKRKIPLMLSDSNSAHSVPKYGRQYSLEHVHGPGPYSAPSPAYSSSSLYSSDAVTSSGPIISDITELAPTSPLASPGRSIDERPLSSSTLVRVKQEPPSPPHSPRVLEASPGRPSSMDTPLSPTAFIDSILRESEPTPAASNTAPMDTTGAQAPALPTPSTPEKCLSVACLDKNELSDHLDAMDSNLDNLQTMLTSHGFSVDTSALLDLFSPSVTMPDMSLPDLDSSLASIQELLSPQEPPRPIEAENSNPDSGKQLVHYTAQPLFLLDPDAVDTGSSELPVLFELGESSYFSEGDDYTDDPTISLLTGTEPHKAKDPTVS

Albumin = Albumin (Bos taurus, UniProt P02769); assay: Counterscreen for inhibitors of T-cell receptor (TCR)-CD3 interaction: Fluorescence-based biochemical high throughput dose response assay to identify inhibitors of T-cell receptor (TCR)-CD3 interaction using a TAMRA-labeled BSA probe.; format: functional
[4] = inhibitors of intracellular T. cruzi replication, confirmation, NIH3T3 host cells, beta-gal luminescence (AID 2044); format: functional, cell-based;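 note: intracellular parasites grown in NIH/3T3 mouse fibroblasts as host cells; luminescent beta-galactosidase reporter signal from transgenic T. cruzi replicating inside host cells; inhibitors lower the luminescence signal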
[5] = cytotoxicity toward NIH3T3 fibroblasts, dose response, counter-screen, cell-based, ATP luminescence, mouse fibroblasts (AID 2010); format: functional;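 note: cells exposed to compound for about 90 hours before reading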
[6] = molecular target: Induced myeloid leukemia cell differentiation protein Mcl-1 (Homo sapiens, UniProt Q07820); format: functional
Protein Tat = Protein Tat (Human immunodeficiency virus type 1 group M subtype B (isolate HXB2)(HIV-1), UniProt P04608); format: functional;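 note: tat binding to TAR RNA read out by fluorescence polarization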
[7] = THP-1 cell cytotoxicity, dose response, cytotoxicity control for Vif-APOBEC3G degradation inhibitor project, THP-1 cells (AID 1117359); format: functional; settings: Human immunodeficiency virus 1, THP-1
[8] = inhibitors of Vif binding to APOBEC3G peptide, primary screen, biochemical, TR-FRET, GST-Vif 1-94, biotin-A3G peptide, dose response retest (AID 1117319); format: functional;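 note: TR-FRET signal of purified GST-Vif binding a biotinylated A3G peptide; inhibitors lower the FRET signal by blocking Vif and A3G binding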
[9] = HeLa 2N DNA content increase, dose response, cell-based, IC50 (AID 1117349); format: functional
[10] = Concentration-dependent survival of SW480 colon cancer line, luminescence detection with CellTiter-Glo, half-maximal inhibitory concentration (AID 1117338); format: functional
[11] = RKO cell viability reduction, dose response, CellTiter-Glo luminescence (AID 1117322); format: functional
[12] = cytotoxicity toward HCT116 cells – cell-based, CellTiter-Glo luminescence, IC50, dose response (AID 1117332); format: functional; settings: HCT-116
[13] = SNU-C1 cell viability reduction, dose response, CellTiter-Glo luminescence (AID 1117323); format: functional, cell-based
[14] = cytotoxicity toward Colo320 cells – cell-based, CellTiter-Glo luminescence, IC50, dose response (AID 1117334); format: functional; settings: COLO 320
[15] = HeLa 4N DNA content increase, dose response, cell-based, IC50 (AID 1117351); format: functional
[16] = cytotoxicity toward HT-29 cells – cell-based, CellTiter-Glo luminescence, IC50, dose response (AID 1117330); format: functional
[17] = CellTiter-Glo luminescent dose response of DLD-1 viability loss (AID 1117352); format: functional
[18] = HCT116 cell viability decrease, GSK3B pretreatment – CellTiter-Glo, IC50, dose response (AID 1117339); format: functional; settings: HCT-116
Major prion protein = Major prion protein (Homo sapiens, UniProt P04156); format: functional, cell-based

With CCCc1cc(=O)oc2c(CN(CC)CC)c(O)c(Cl)cc12 the IC50 (Aminopeptidase N) was 37 µM (active) and the AC50 [1] was 7.13 µM (active).

For Cc1cc(C(=O)NN=C(S)NC2CCCCC2)cs1, the IC50 [2] was > 122 µM (inactive).

In the case of CCn1c(S)nnc1-c1cccn(Cc2ccc(Cl)cc2Cl)c1=O, the IC50 [2] is reported as > 122 µM (inactive).

In the case of CC/C(NNC(=O)c1ccccc1O)=C1/C(=O)NC(=O)N(Cc2ccccc2)C1=O, the IC50 (Leucine aminopeptidase) is reported as 47.3 µM (active), the IC50 (Aminopeptidase N) is reported as 7.8 µM (active) and the EC50 [3] is reported as 30.2 µM (active). The IC50 (Albumin) was > 94.1 µM (inactive).

For COc1ccccc1C1=Nc2cccc3cccc(c23)N1, the EC50 [4] was 6.83 µM (active), the EC50 [5] was > 30 µM (not active) and the IC50 [6] was < 400 nM (not active). For the same molecule, the IC50 (Protein Tat) was > 100 µM (inconclusive), the CC50 [7] was > 40 µM (active) and the IC50 [8] was > 63.3 µM (active).

For O=C(CCl)c1ccc(Cl)cc1Cl, the IC50 [9] was 514 nM (active), the IC50 [10] was 1.25 µM (active) and the IC50 [11] was 4.3 µM (active). For the same molecule, the IC50 [12] was 6.3 µM (inactive), the IC50 [13] was 2.98 µM (active) and the IC50 [14] was 530 nM (active). The IC50 [15] was > 10 µM (inactive), the IC50 [16] was 8.52 µM (inactive) and the IC50 [17] was 2.07 µM (active). The IC50 [18] was 1.1 µM (active).

With CCCCOc1ccc(C(=O)C2=C(O)C(=O)N(Cc3cccnc3)C2c2ccncc2)c(C)c1 (centres undefined) the IC50 (Major prion protein) was 4.21 µM (active) and the IC50 (cells) was > 138 µM (inactive).

With Cc1nc(SCC(=O)NNC(=O)c2ccc(F)cc2)c2ccccc2n1 the IC50 (Major prion protein) was 2.26 µM (active) and the IC50 (cells) was > 138 µM (inactive).

With O=c1ccc2cc(O[C@@H]3O[C@H](CO)[C@@H](O)[C@H](O)[C@H]3O)c(O)cc2o1 the AC50 [1] was 1.72 µM (active).
